Data reported in paper PMC3222680 (PLoS ONE, 2011).

What was measured:
αWT β-αY27′A GlyR = target: T1, αWT β-αY27′A GlyR (Homo sapiens, UniProt P23415+P48167, A275I/A296P/F268Y/G272Q/L286I/M270L/M271I/P292M/P300G/S295A/T277S/V266M/V273M/V282I/Y307A); assay type: cell-based
T1 construct: The α R218-Q219 and β R242-Q243 are also the joining sites for chimeras constructed between the ECD and TMD; expressed in transfected cells; host or cells: HEK293 cells (ATCC), pcDNA3.1zeo+
T1 sequence (P23415 29-449 isoform P23415-2): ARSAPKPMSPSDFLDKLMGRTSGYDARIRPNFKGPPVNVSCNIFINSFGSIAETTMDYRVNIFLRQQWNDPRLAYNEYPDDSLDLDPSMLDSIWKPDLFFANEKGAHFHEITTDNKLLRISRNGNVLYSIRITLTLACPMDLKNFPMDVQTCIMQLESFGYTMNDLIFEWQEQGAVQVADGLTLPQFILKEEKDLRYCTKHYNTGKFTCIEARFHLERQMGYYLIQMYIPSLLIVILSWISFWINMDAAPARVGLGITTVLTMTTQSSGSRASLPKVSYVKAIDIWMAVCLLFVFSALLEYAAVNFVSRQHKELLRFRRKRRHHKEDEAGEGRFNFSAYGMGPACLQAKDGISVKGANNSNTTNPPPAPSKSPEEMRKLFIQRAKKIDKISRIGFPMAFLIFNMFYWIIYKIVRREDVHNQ
T1 sequence (P48167+P23415 with tags, fused parts or gaps P48167:V266M/P48167:F268Y/P48167:M270L/P48167:M271I/P48167:G272Q/P48167:V273M/P48167:A275I/P48167:T277S/P48167:V282I/P48167:L286I/P48167:P292M/P48167:S295A/P48167:A296P/P48167:P300G/P23415:Y307A): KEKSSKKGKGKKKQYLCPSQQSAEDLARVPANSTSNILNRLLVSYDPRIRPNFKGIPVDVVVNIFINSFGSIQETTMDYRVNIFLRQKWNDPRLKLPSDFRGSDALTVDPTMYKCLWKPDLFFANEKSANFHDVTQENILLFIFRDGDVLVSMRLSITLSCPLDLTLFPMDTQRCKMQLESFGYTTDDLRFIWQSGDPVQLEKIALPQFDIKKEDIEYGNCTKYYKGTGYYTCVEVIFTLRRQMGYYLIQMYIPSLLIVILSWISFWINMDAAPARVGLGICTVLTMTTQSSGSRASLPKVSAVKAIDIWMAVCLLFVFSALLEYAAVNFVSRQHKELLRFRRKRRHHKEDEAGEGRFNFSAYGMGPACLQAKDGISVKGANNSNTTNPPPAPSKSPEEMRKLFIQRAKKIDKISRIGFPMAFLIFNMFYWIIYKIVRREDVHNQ
Experimental: (§1) The human GlyR α1 and β subunit cDNAs were subcloned into the pcDNA3.1zeo+ (Invitrogen) or pGEMHE [44] plasmid vectors for expression in HEK293 cells or Xenopus oocytes, respectively. Site-directed mutagenesis and chimera construction were performed using the QuickChange (Stratagene, La Jolla, CA, USA) mutagenesis and multiple-template-based sequential PCR protocols, respectively.
(§2) For the β-α chimeras used for determining the effect of hyperekplexia-mimicking mutations on α1 β GlyR channel function, the Thr at the M2 6′ position was replaced by a Cys. […] Through such a modification, picrotoxin resistance was used to distinguish the heteromeric α1 β-α GlyR from the homomeric α1 GlyR when the α1 and β-α subunits were co-expressed.
(§3) The effects of the hyperekplexia-mimicking mutations, K24′A, V25′A and Y27′A, were examined on GlyRs expressed in HEK293 cells (ATCC). Details of the HEK293 cell culture, GlyR expression and electrophysiological recording of the HEK293 cells are described elsewhere. Briefly, HEK293 cells were maintained in DMEM supplemented with 10% fetal bovine serum. Cells were transfected using a calcium phosphate precipitation protocol. When co-transfecting the α1 together with the β or any other chimera subunits, their respective cDNAs were combined in a ratio of 1∶10. In addition, the pEGFP-N1 (Clontech) was co-transfected to facilitate identifying the transfected cells. […] Cells were treated with external Ringer's solution and internal CsCl solution [30]. Cells were voltage-clamped at −40 mV. When the heteromeric GlyRs were expressed, the picrotoxin sensitivity was tested to confirm that the majority of receptors are heteromers, [30].
(§4) Results are expressed as mean±standard error of the mean of three or more independent experiments. […] Statistical significance was determined using the Student's t-test.

αWT β-αK24′A GlyR = target: T2, αWT β-αK24′A GlyR (Homo sapiens, UniProt P23415+P48167, A275I/A296P/F268Y/G272Q/K304A/L286I/M270L/M271I/P292M/P300G/S295A/T277S/V266M/V273M/V282I); assay type: cell-based
T2 construct: The α R218-Q219 and β R242-Q243 are also the joining sites for chimeras constructed between the ECD and TMD; expressed in transfected cells; host or cells: HEK293 (ATCC)
T2 sequence (P23415 29-449 isoform P23415-2): T1 sequence (P23415 29-449 isoform P23415-2)
T2 sequence (P48167+P23415 with tags, fused parts or gaps P48167:V266M/P48167:F268Y/P48167:M270L/P48167:M271I/P48167:G272Q/P48167:V273M/P48167:A275I/P48167:T277S/P48167:V282I/P48167:L286I/P48167:P292M/P48167:S295A/P48167:A296P/P48167:P300G/P23415:K304A): T1 sequence (P48167+P23415 with tags, fused parts or gaps P48167:V266M/P48167:F268Y/P48167:M270L/P48167:M271I/P48167:G272Q/P48167:V273M/P48167:A275I/P48167:T277S/P48167:V282I/P48167:L286I/P48167:P292M/P48167:S295A/P48167:A296P/P48167:P300G/P23415:Y307A) with K300A, A303Y
Experimental: as §1, §2, §3, §4

[1] = αWT β-αY27′A, HEK293, with glycine at EC50 of α1 homomer
[2] = αWT β-αK24′A, HEK293, with glycine at EC50 of α1 homomer

Compound	Imax (αWT β-αY27′A GlyR) [nA]	nH (αWT β-αY27′A GlyR)	Imax (αWT β-αK24′A GlyR) [nA]	nH (αWT β-αK24′A GlyR)	10uM PTX inhibition (%) (αWT β-αY27′A GlyR; [1])	100uM PTX inhibition (%) (αWT β-αY27′A GlyR; [1])	10uM PTX inhibition (%) (αWT β-αK24′A GlyR; [2])	100uM PTX inhibition (%) (αWT β-αK24′A GlyR; [2])
NCC(=O)O [glycine]	6.5±1.6	2.1±0.6	5.9±1.7	1.5±0.3				
picrotoxin [PTX]					22±7	48±4	12.0±3.0	31±3
